According to the NIST ThermoML archive (doi:10.1016/j.tca.2014.09.011):
Values joined by “and” are separate entries in the source; they are usually repeats but may differ in a detail not shown here. Equal entries are not always repeated.

Conditions: Liquid, Rate of evaporation

CCO [ethanol]
Conditions | vapor or sublimation pressure [kPa]
301.1 K | 9.07
305.47 K | 10.94
305.54 K | 11.69
305.63 K | 11.08
305.68 K | 11.85

CCCCCCCCO [octan-1-ol]
Conditions | vapor or sublimation pressure [kPa]
319.82 K | 0.06
324.46 K | 0.09
333.93 K | 0.21
343.23 K | 0.38
343.39 K | 0.4
348.15 K | 0.54
362.32 K | 1.36
390.95 K | 6.14

Cc1ccccc1 [toluene]
Conditions | vapor or sublimation pressure [kPa]
300.89 K | 4.47
305.64 K | 5.17
305.68 K | 5.23
324.21 K | 13.4

CCCCO [butan-1-ol]
Conditions | vapor or sublimation pressure
301.02 K | 1.09 kPa
305.59 K | 1.46 kPa
310.16 K | 1.92 kPa
310.26 K | 1.96 kPa
310.29 K | 1.9 kPa and 1.91 kPa
314.75 K | 2.67 kPa
314.76 K | 2.6 kPa and 2.5 kPa
314.81 K | 2.61 kPa
321.34 K | 4.15 kPa and 4.19 kPa
322.07 K | 4.33 kPa
322.58 K | 4.48 kPa
322.69 K | 4.52 kPa
323.09 K | 4.54 kPa
323.14 K | 4.54 kPa
323.5 K | 4.62 kPa
323.67 K | 4.69 kPa
323.78 K | 4.75 kPa
323.9 K | 4.74 kPa
324.18 K | 4.79 kPa
324.28 K | 4.85 kPa
324.57 K | 4.91 kPa
324.59 K | 4.87 kPa
324.8 K | 4.95 kPa
324.91 K | 4.98 kPa
333.51 K | 8.09 kPa
334.32 K | 8.38 kPa
341.78 K | 12.79 kPa
343.2 K | 13.52 kPa
343.36 K | 13.71 kPa
343.39 K | 14.44 kPa
352.7 K | 21.03 kPa
360.58 K | 32.09 kPa
